Assay results: patent publication US20120207763A1, “PYRROLOPYRIMIDINE COMPOUNDS AND THEIR USES” (ASTEX THERAPEUTICS LIMITED, priority 2006, published 2012)
pIC50: −log10 of the molar value.

Key:
Assay type in all cases: biochemical
[1] = biological target: CDK2/Cyclin-A kinase complex (Homo sapiens, UniProt P24941); assay: CDK2 IMAP fluorescence polarization assay; conditions: Table E; read-out: CDK2cyA IMAP/IC50 [umol l − 1]
Procedure, shortened: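 Fluorescence polarization (IMAP) using purified active CDK2/Cyclin-A complex with a TAMRA-tagged Histone H1-derived peptide substrate; phosphorylated peptide bound by a metal-containing reagent raises polarization. Inhibition read as reduced fluorescence polarization signal.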

CDK4 = CDK4 (Homo sapiens, UniProt P11802); assay: CDK4 HTRF assay; conditions: Table E; read-out: CDK4 HTRF/IC50 [umol l − 1]
[2] = biological target: CDK4/Cyclin-D1 kinase complex (Homo sapiens, UniProt P11802); assay: CDK4 ELISA based assay, Rb Ser780 phosphorylation; conditions: Table E; read-out: CDK4 ELISA assay IC50 [umol l−]
Text: The compounds that inhibit the CDK4 kinase activity would inhibit the signal output of the assay.

Chain of CDK4/Cyclin-D1 kinase complex (P11802 whole entry): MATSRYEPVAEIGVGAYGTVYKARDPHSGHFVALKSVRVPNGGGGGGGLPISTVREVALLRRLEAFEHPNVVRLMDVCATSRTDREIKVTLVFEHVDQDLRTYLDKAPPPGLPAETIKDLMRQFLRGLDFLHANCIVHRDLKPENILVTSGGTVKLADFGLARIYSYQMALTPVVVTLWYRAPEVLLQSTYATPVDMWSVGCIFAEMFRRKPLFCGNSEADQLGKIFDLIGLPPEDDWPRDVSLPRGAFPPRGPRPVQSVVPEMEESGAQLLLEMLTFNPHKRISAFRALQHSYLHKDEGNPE
Chain of CDK4/Cyclin-D1 kinase complex (P24385 whole entry partner): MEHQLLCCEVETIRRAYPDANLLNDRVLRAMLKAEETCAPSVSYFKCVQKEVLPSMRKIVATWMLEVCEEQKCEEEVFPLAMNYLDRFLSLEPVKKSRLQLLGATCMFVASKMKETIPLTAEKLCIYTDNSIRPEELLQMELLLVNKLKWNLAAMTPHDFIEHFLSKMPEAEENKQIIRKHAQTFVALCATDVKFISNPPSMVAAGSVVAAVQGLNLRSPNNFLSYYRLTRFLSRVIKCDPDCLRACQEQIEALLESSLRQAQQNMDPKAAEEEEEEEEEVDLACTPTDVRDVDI
Chain of CDK4 (P11802 whole entry): as the sequence (P11802 whole entry) above
Chain of CDK4 (P24385 whole entry partner): as the sequence (P24385 whole entry partner) above

Structure (SMILES) | pIC50 [1] | pIC50 (CDK4) | pIC50 [2]
CCC(CC)n1c(C(=O)O)cc2cnc(Nc3ccc(N4CCNCC4)cc3)nc21 [Example 375, 7-(1-Ethyl-propyl)-2-(4-piperazin-1-yl-phenylamino)-7H-pyrrolo[2,3-d]pyrimidine-6-carboxylic acid] | > 6.00 | > 6.00 | > 6.00
CC(=O)c1c(C)n(C2CCCC2)c2nc(Nc3ccc(N4CCNCC4)cc3)ncc12 [Example 333, 1-[7-Cyclopentyl-6-methyl-2-(4-piperazin-1-yl-phenylamino)-7H-pyrrolo[2,3-d]pyrimidin-5-yl]-ethanone] | 5.00 | 5.00 | > 5.00
CCC(CC)n1c(C=O)cc2cnc(Nc3ccc(N4CCN(C(C)=O)CC4)cc3)nc21 [Example 361, 2-[4-(4-Acetyl-piperazin-1-yl)-phenylamino]-7-(1-ethyl-propyl)-7H-pyrrolo[2,3-d]pyrimidine-6-carbaldehyde] | > 6.00 | > 6.00 | > 6.00
CCC(CC)n1c(COC)cc2cnc(Nc3ccc(N4CCNCC4)cc3)nc21 [Example 382] | > 5.00 | > 6.00 | < 5.00
CC(=O)N1CCN(c2ccc(Nc3ncc4ccn(C5CCCCCC5)c4n3)cc2)CC1 [Example 225] | > 5.00 | > 6.00 | > 6.00
CCC(CC)n1c(C(=O)O)cc2cnc(Nc3ccc(N4CCN(C(C)=O)CC4)cc3)nc21 [Example 374, 2-[4-(4-Acetyl-piperazin-1-yl)-phenylamino]-7-(1-ethyl-propyl)-7H-pyrrolo[2,3-d]pyrimidine-6-carboxylic acid] | > 6.00 | > 6.00 | > 6.00
CC(=O)c1c(C)c2cnc(Nc3ccc(N4CCNCC4)cc3)nc2n1C1CCCC1 [Example 383] | > 6.00 | > 6.00 | > 6.00
CC(=O)c1c(C)c2cnc(Nc3ccc(N4CCNCC4)cn3)nc2n1C1CCCC1 [Example 387] | 5.00 | > 6.00 | > 6.00
